Test results published in patent US10761087B2, “Choroidal neovascularization suppressor or drusen formation suppressor, and method for assessing or screening for same” (Link Genomics, Inc., priority 2015, dated 2020).
Like-named read-outs stand apart in the source and are kept apart here.

How the values were obtained:
[1] = system: EMT markers (mesenchymal markers, ECM) in RPE cells (ARPE-19); assay: Change in expression of EMT markers (real-time PCR) in EMT-induced RPE cells; format: cell-based, human; details: EMT-induced ARPE-19, 48 hours; for Enhancement of expression of Fibronectin, Snail and vimentin (mesenchymal markers): compound at Cmax, ½ of Cmax or ¼ of Cmax; for EMT suppression (FIG. 3 to FIG. 7) / Expression of EMT markers other than the ten common markers / Expression of Snail, Slug, CDH3, MMP1, MMP7, COL5A3, COL6A3, LAMC2, HMMR, TNC: oxaprozin 300 μM, epalrestat 30 μM, zafirlukast 3 μM, amlexanox 30 μM, zaltoprofen 30 μM
Protocol: RPE cells (ARPE-19) were seeded on a plate, and incubated for 5 days at 37° C. For the RPE cells, EMT was induced in the conditions described in Test example 1-1, and respective compounds (oxaprozin, epalrestat, zafirlukast, amlexanox, zaltoprofen) were added simultaneously, and the cells were collected after 48 hours from induction of EMT. As a control, a sample to which a compound to be assessed (test drug) is not added was used. The collected cells were washed with PBS, and 350 μL of an RLT buffer was added to prepare a lysate for RNA extraction. The respective compounds were used in the following concentrations. Oxaprozin: 300 μM, epalrestat: 30 μM, zafirlukast: 3 μM, amlexanox: 30 μM, zaltoprofen: 30 μM. Total RNA was extracted from the lysate using an RNeasy Micro kit (QIAGEN, #74004), and from 2 μg of the obtained RNA, cDNA was prepared using a SuperScript III First-Strand Synthesis SuperMix for qRT-PCR (Invitrogen, #11752-250). Using 50 ng of the obtained cDNA as a template, a real-time PCR (ABI Prism 7500 Sequence Detection System) was conducted according to the manufacturer's protocol, and expression of mRNA of each gene was quantified. Specific primers for respective genes were purchased from Invitrogen. Ct (Threshold Cycle) value of each gene was calculated as a percentage to a non-treated sample after normalization by endogenous control.
Five compounds (flufenamic acid aluminum (addition concentration: 28 μM (Cmax)), mefenamic acid (addition concentration: 39 μm (Cmax)), sulindac (addition concentration: 100 μM), tiaprofenic acid (addition concentration: 1000 μM), and seratrodast (addition concentration: 31 μM (Cmax))) were assessed for change in expression of EMT markers in the same manner as in Test example 2-1. The results are shown in FIG. 8 to FIG. 12, respectively.
RPE cells (ARPE-19) were seeded on a plate, and incubated for 5 days at 37° C. […] Each compound was added in a concentration of Cmax, ½ of Cmax or ¼ of Cmax. As a control, a sample to which a compound to be assessed (test drug) is not added was used. The collected cells were washed with PBS, and 350 μL of an RLT buffer was added to prepare a lysate for RNA extraction. Total RNA was extracted from the lysate using an RNeasy Micro kit (QIAGEN, #74004), and from 2 μg of the obtained RNA, cDNA was prepared using a SuperScript III First-Strand Synthesis SuperMix for qRT-PCR (Invitrogen, #11752-250). Using 50 ng of the obtained cDNA as a template, a real-time PCR (ABI Prism 7500 Sequence Detection System) was conducted according to the manufacturer's protocol, and expression of mRNA of each gene was quantified. Specific primers for respective genes were purchased from Invitrogen. Ct (Threshold Cycle) value of each gene was calculated as a percentage to a non-treated sample after normalization by endogenous control. For each result, a significant test (Student t test) was conducted, and when p<0.05, the result was marked with “*”, and when p<0.01, the result was marked with “**”.
RPE cells (ARPE-19) were seeded on a plate, and incubated for 5 days at 37° C. For the RPE cells, EMT was induced in the conditions described in Test example 5-1, and the five representative compounds (oxaprozin, epalrestat, zafirlukast, amlexanox, zaltoprofen) were added simultaneously, and the cells were collected after 48 hours from induction of EMT. As a control, a sample to which a compound to be assessed (test drug) is not added was used. The collected cells were washed with PBS, and 350 μL of an RLT buffer was added to prepare a lysate for RNA extraction. Total RNA was extracted from the lysate using an RNeasy Micro kit (QIAGEN, # 74004), and from 2 μg of the obtained RNA, cDNA was prepared using a SuperScript III First-Strand Synthesis SuperMix for qRT-PCR (Invitrogen, # 11752-250). […]

RPE cells (ARPE-19) = assay: Focus (drusen-like structure) formation suppression in EMT induction model of RPE cells; format: cell-based, human; details: for Suppression of drusen-like structure formed in the RPE cell model: FIG. 35 to 39; for IC50: Homo sapiens
Protocol: RPE cells (ARPE-19) were seeded on a plate, and incubated for 5 days at 37° C. […] As a control of EMT induction, a sample to which a compound to be assessed (test drug) is not added was used. After 48 hours from EMT induction, the cells were fixed by treating with a 4% paraformaldehyde solution for 30 minutes at room temperature, and then washed three times with PBS. The cells were treated with a 0.2% Triton-X/PBS solution for 5 minutes, and washed three times with PBS. […] The fluorescent-stained cells were imaged by using an Image Express Micro (available from Molecular Devices), and digitized by using a MetaXpress2.0 (available from Molecular Devices). By analyzing the degree of formation of Focus (Focus level) from the numerical data, a Focus formation suppressing rate was calculated according to the following Formula 1 on the basis of the numerical value at the time of no addition of a compound, and the EMT suppressive effect in each compound was verified. The degree of formation of Focus (Focus level) was determined according to the number and the volume of Focus as indexes.
IC50 in the table was calculated using the following Formula 2.
A: Higher concentration sandwiching 50%
B: Lower concentration sandwiching 50%
C: Inhibition rate at lower concentration sandwiching 50%
D: Inhibition rate at higher concentration sandwiching 50%
RPE cells (ARPE-19) were seeded on a plate, and incubated for 5 days at 37° C. […] As a control of EMT induction, a sample to which a compound to be assessed (test drug) is not added was used. The cells after observation were fixed by treating with a 4% paraformaldehyde solution for 30 minutes at room temperature, and then washed three times with PBS. The cells were treated with a 0.2% Triton-X/PBS solution for 5 minutes, and washed three times with PBS. […] The fluorescent-stained cells were imaged by using an Image Express Micro (available from Molecular Devices), and digitized by using a MetaXpress2.0 (available from Molecular Devices). By analyzing the degree of formation of Focus from the numerical data, a Focus formation suppressing rate was calculated on the basis of the case without addition of a compound and the case without EMT induction, and the EMT suppressive effect in each compound was verified. […] After washing three times with methanol, the cells were dried for 3 hours at room temperature. The dried cells were observed under a microscope.

[2] = Table 1, EMT-induced ARPE-19, compound added simultaneously, 48 hours, read-out: IC50 (Focus formation suppressing rate, EMT suppressive effect)
[3] = Test example 7, EMT-induced ARPE-19, 48 hours, read-out: IC50 values in the drusen-like structure suppressing tests

Row | SMILES | Enhancement of expression of Fibronectin, Snail and vimentin (mesenchymal markers) [1] | EMT suppression (FIG. 3 to FIG. 7) [1] | Expression of EMT markers other than the ten common markers [1] | Expression of Snail, Slug, CDH3, MMP1, MMP7, COL5A3, COL6A3, LAMC2, HMMR, TNC [1] | Suppression of drusen-like structure formed in the RPE cell model (RPE cells (ARPE-19); EMT-induced ARPE-19, 48 hours) | IC50 (RPE cells (ARPE-19); [2]) [µM] | IC50 (RPE cells (ARPE-19); [3]) [µM]
1 | O=C(O)CCc1nc(-c2ccccc2)c(-c2ccccc2)o1 [Oxaprozin, oxaprozin] | suppressed enhancement of expression of these in a concentration dependent manner | significantly suppress EMT | decrease in expression was observed in ZEB2, MMP3, COL1A1, COL1A2, CSPG4, and SRGN | suppressed expression | suppresses a drusen-like structure formed in the RPE cell model in a concentration-dependent manner | 61 | 61
2 | CC(C(=O)O)c1ccc2c(c1)CC(=O)c1ccccc1S2 (centres unmarked) [Zaltoprofen, zaltoprofen] | suppressed enhancement of expression of these in a concentration dependent manner | significantly suppress EMT | decrease in expression was observed in ZEB2, FN1, COL13A1, and CSPG4 | suppressed expression | suppresses a drusen-like structure formed in the RPE cell model in a concentration-dependent manner | 16.5 | 16.5
